Results on 49 molecules are retold here after US20250171459A1, “2-METHYL-4',5'-DIHYDROSPIRO[PIPERIDINE-4,7'-THIENO[2,3-C]PYRAN] DERIVATIVES AS INHIBITORS OF APOL1 AND METHODS OF USING SAME” (Vertex Pharmaceuticals Incorporated, priority 2022, published 2025).

This assay addresses T1, APOL1 (Homo sapiens, UniProt O14791).
T1 sequence (O14791 1-398 S342G/I384M): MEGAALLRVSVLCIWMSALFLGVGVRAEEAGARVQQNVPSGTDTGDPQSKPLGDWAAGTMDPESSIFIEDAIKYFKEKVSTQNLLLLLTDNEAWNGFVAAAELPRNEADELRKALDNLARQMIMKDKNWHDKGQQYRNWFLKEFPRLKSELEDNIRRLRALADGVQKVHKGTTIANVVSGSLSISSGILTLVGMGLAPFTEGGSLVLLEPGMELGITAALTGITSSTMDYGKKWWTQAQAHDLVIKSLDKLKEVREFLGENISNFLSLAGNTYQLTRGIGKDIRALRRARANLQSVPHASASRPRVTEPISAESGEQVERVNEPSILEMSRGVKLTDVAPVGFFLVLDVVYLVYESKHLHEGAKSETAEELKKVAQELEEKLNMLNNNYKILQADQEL
Description: MultiTox-Fluor Multiplex Cytotoxicity Assay in tet-inducible APOL1 T-REx-HEK293 cells (cell rescue, ratio of dead to live cells). To be noted: tet-inducible transgenic APOL1 T-REx-HEK293 cell lines, 50 ng/mL tet, 24 hours; read-out: IP50 (i.e., IC50 for cell proliferation). Format: cell-based. The procedure, abridged: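 T-REx-HEK293 cells with tet-inducible APOL1 were treated with compound (10 μM top, 10-point 3-fold dilution, duplicate) plus 50 ng/mL tetracycline for 24 h at 37° C, in DMEM with 2% tet-free FBS. MultiTox-Fluor protease signals gave a dead/live ratio, normalized to no tet (100% viability) and tet alone (0%).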

A value given as a limit tells only on which side of the number the result lay.

On to `CCc1cc2c(s1)CCO[C@@]21CCN(C[C@H]2C[C@@H](NC(=O)CCS(C)(=O)=O)C2)[C@@H](C)C1` [Compound 356], for which the IC50 was under 100 nM.

As to `CCc1cc2c(s1)CCO[C@@]21CCN(C[C@H]2C[C@@H](NC(=O)C3(O)CC(O)C3)C2)[C@@H](C)C1` (stereo partly shown) [Compound 357], the IC50 was under 100 nM.

As for `CCc1cc2c(s1)CCO[C@@]21CCN(C[C@H]2C[C@@H](NC(=O)c3ccc4[nH]nnc4c3)C2)[C@@H](C)C1` [Compound 358], the IC50 is under 100 nM.

As to `CCc1cc2c(s1)CCO[C@@]21CCN(C[C@H]2C[C@@H](NC(=O)C3(C)COC3)C2)[C@@H](C)C1` [Compound 359], the IC50 was in the range of 100 to 500 nM.

On to `CCc1cc2c(s1)CCO[C@@]21CCN(C[C@H]2C[C@@H](NC(=O)C(C)(C)N)C2)[C@@H](C)C1` [Compound 360], for which the IC50 was 100 to 500 nM.

For `CCc1cc2c(s1)CCO[C@@]21CCN(C[C@H]2C[C@@H](NC(=O)C3CNC(=O)O3)C2)[C@@H](C)C1` (stereo partly shown) [Compound 361], the IC50 lay within 100 to 500 nM.

In the case of `CCc1cc2c(s1)CCO[C@@]21CCN(C[C@H]2C[C@@H](NC(=O)C3CC(=O)N(C)C3)C2)[C@@H](C)C1` (stereo partly shown) [Compound 362], the IC50 lay in the range of 100 to 500 nM.

For `CCc1cc2c(s1)CCO[C@@]21CCN(C[C@H]2C[C@@H](NC(=O)c3cc(CO)n[nH]3)C2)[C@@H](C)C1` [Compound 363], the IC50 is under 100 nM.

Regarding `CCc1cc2c(s1)CCO[C@@]21CCN(C[C@H]2C[C@@H](NC(=O)CNS(C)(=O)=O)C2)[C@@H](C)C1` [Compound 364], the IC50 lay in the range of 100 to 500 nM.

For the molecule `CCc1cc2c(s1)CCO[C@@]21CCN(C[C@H]2C[C@@H](NC(=O)C(O)CO)C2)[C@@H](C)C1` (stereo partly shown) [Compound 365], the IC50 fell in the range of 100 to 500 nM.

As to `CCc1cc2c(s1)CCO[C@@]21CCN(C[C@H]2C[C@@H](NC(=O)CCN3CCCC3=O)C2)[C@@H](C)C1` [Compound 366], the IC50 fell in the range of 100 to 500 nM.

With `CCc1cc2c(s1)CCO[C@@]21CCN(C[C@H]2C[C@@H](NC(=O)C3CC3C(=O)N(C)C)C2)[C@@H](C)C1` (stereo partly shown) [Compound 367], the IC50 was in the range of 100 to 500 nM.

As to `CCc1cc2c(s1)CCO[C@@]21CCN(C[C@H]2C[C@@H](NC(=O)[C@H]3CCCO3)C2)[C@@H](C)C1` [Compound 368], the IC50 fell in the range of 100 to 500 nM.

On to `CCc1cc2c(s1)CCO[C@@]21CCN(C[C@H]2C[C@@H](NC(=O)[C@@H]3CCCO3)C2)[C@@H](C)C1` [Compound 369], for which the IC50 was 100 to 500 nM.

With `CCc1cc2c(s1)CCO[C@@]21CCN(C[C@H]2C[C@@H](NC(=O)C(C)(O)C(F)(F)F)C2)[C@@H](C)C1` (stereo partly shown) [Compound 370], the IC50 lay in the range of 100 to 500 nM.

Regarding `CCCOC(=O)N[C@H]1C[C@@H](CN2CC[C@]3(C[C@@H]2C)OCCc2sc(CC)cc23)C1` [Compound 371], the IC50 is under 100 nM.

In the case of `CCc1cc2c(s1)CCO[C@@]21CCN(C[C@H]2C[C@@H](NC(=O)Oc3ccccc3F)C2)[C@@H](C)C1` [Compound 372], the IC50 lay within 500 to 1000 nM.

For `CCc1cc2c(s1)CCO[C@@]21CCN(C[C@H]2C[C@@H](NC(=O)OCC(C)C)C2)[C@@H](C)C1` [Compound 373], the IC50 was 100 to 500 nM.

`CCc1cc2c(s1)CCO[C@@]21CCN(C[C@H]2C[C@@H](NC(=O)OCCOC)C2)[C@@H](C)C1` [Compound 374]: the IC50 fell in the range of 100 to 500 nM.

For the molecule `CCOC(=O)N[C@H]1C[C@@H](CN2CC[C@]3(C[C@@H]2C)OCCc2sc(CC)cc23)C1` [Compound 375], the IC50 is under 100 nM.

Take `CCc1cc2c(s1)CCO[C@@]21CCN(C[C@H]2C[C@@H](NC(=O)OC(C)C)C2)[C@@H](C)C1` [Compound 376]: the IC50 was under 100 nM.

`CCc1cc2c(s1)CCO[C@@]21CCN(C[C@H]2C[C@@H](NC(=O)Oc3ccc(F)cc3)C2)[C@@H](C)C1` [Compound 377]: the IC50 is under 100 nM.

Turning to `CCc1cc2c(s1)CCO[C@@]21CCN(C[C@H]2C[C@@H](NC(=O)OCC3CC3)C2)[C@@H](C)C1` [Compound 378], the IC50 is 100 to 500 nM.

As to `CCc1cc2c(s1)CCO[C@@]21CCN(C[C@H]2C[C@@H](NC(=O)Oc3ccc(OC)cc3)C2)[C@@H](C)C1` [Compound 379], the IC50 was under 100 nM.

As for `CCc1cc2c(s1)CCO[C@@]21CCN(C[C@H]2C[C@@H](NC(=O)OCc3ccccc3)C2)[C@@H](C)C1` [Compound 380], the IC50 lay in the range of 100 to 500 nM.

For `CCc1cc2c(s1)CCO[C@@]21CCN(C[C@H]2C[C@@H](NC(=O)OCc3ccccc3Cl)C2)[C@@H](C)C1` [Compound 381], the IC50 lay in the range of 100 to 500 nM.

Regarding `CCc1cc2c(s1)CCO[C@@]21CCN(C[C@H]2C[C@@H](NC(=O)Oc3ccc(Cl)cc3)C2)[C@@H](C)C1` [Compound 382], the IC50 is under 100 nM.

With `CCc1cc2c(s1)CCO[C@@]21CCN(C[C@H]2C[C@@H](NC(=O)OCC3CCCCC3)C2)[C@@H](C)C1` [Compound 383], the IC50 was 100 to 500 nM.

`CCc1cc2c(s1)CCO[C@@]21CCN(C[C@H]2C[C@@H](NC(C)=O)C2)[C@@H](C)C1` [Compound 384]: the IC50 fell in the range of 100 to 500 nM.

Regarding `CCc1cc2c(s1)CCO[C@@]21CCN(CC2CC(NC(=O)CCCCCOCCOCCOCCOCCCCCCCl)C2)[C@@H](C)C1` (stereo partly drawn) [Compound 385, 6-[2-[2-[2-(6-chlorohexoxy)ethoxy]ethoxy]ethoxy]-N-[3-[[(2′S,4R)-2-ethyl-2′-methyl-spiro[6,7-dihydrothieno[3,2-c]pyran-4,4′-piperidine]-1′-yl]methyl]cyclobutyl]hexanamide], the IC50 lay in the range of 100 to 500 nM.

Consider `CCc1cc2c(s1)CCO[C@@]21CCN(C[C@H]2C[C@@H](NC(=O)OCCOCCOCCOC(=O)NCCOCCOCCCCCCCl)C2)[C@@H](C)C1` [Compound 386, 2-[2-[2-[[3-[[(2′S,4R)-2-ethyl-2′-methyl-spiro[6,7-dihydrothieno[3,2-c]pyran-4,4′-piperidine]-1′-yl]methyl]cyclobutyl]carbamoyloxy]ethoxy]ethoxy]ethyl N-[2-[2-(6-chlorohexoxy)ethoxy]ethyl]carbamate], for which the IC50 was under 100 nM.

On to `CCc1cc2c(s1)CCO[C@@]21CCN(C[C@H]2C[C@@H](NC(=O)C(F)(F)F)C2)[C@@H](C)C1` [Compound 387, N-[3-[[(2′S,4R)-2-ethyl-2′-methyl-spiro[6,7-dihydrothieno[3,2-c]pyran-4,4′-piperidine]-1′-yl]methyl]cyclobutyl]-2,2,2-trifluoro-acetamide], for which the IC50 lay within 100 to 500 nM.

Regarding `CCc1cc2c(s1)CCO[C@@]21CCN(C[C@H]2C[C@@H](NS(=O)(=O)CCO)C2)[C@@H](C)C1` [Compound 388, N-[3-[[(2′S,4R)-2-ethyl-2′-methyl-spiro[6,7-dihydrothieno[3,2-c]pyran-4,4′-piperidine]-1′-yl]methyl]cyclobutyl]-2-hydroxy-ethanesulfonamide], the IC50 was under 100 nM.

With `CCc1cc2c(s1)CCO[C@@]21CCN(C[C@H]2C[C@@H](NS(=O)(=O)CC#N)C2)[C@@H](C)C1` [Compound 389], the IC50 was under 100 nM.

For the molecule `CCc1cc2c(s1)CCO[C@@]21CCN(C[C@H]2C[C@@H](NS(=O)(=O)C3CC3)C2)[C@@H](C)C1` [Compound 390], the IC50 was under 100 nM.

As for `CCc1cc2c(s1)CCO[C@@]21CCN(C[C@H]2C[C@@H](NS(=O)(=O)c3ccc(C#N)cc3)C2)[C@@H](C)C1` [Compound 391], the IC50 is under 100 nM.

Take `CCc1cc2c(s1)CCO[C@@]21CCN(C[C@H]2C[C@@H](NS(=O)(=O)CC(=O)OC)C2)[C@@H](C)C1` [Compound 392]: the IC50 was in the range of 500 to 1000 nM.

As to `CCc1cc2c(s1)CCO[C@@]21CCN(C[C@H]2C[C@@H](NS(=O)(=O)Cc3cccc(C)c3)C2)[C@@H](C)C1` [Compound 393], the IC50 was under 100 nM.

`CCc1cc2c(s1)CCO[C@@]21CCN(C[C@H]2C[C@@H](NS(=O)(=O)CC)C2)[C@@H](C)C1` [Compound 394]: the IC50 was under 100 nM.

Take `CCc1cc2c(s1)CCO[C@@]21CCN(C[C@H]2C[C@@H](NS(=O)(=O)C(C)C)C2)[C@@H](C)C1` [Compound 395]: the IC50 was under 100 nM.

In the case of `CCc1cc2c(s1)CCO[C@@]21CCN(C[C@H]2C[C@@H](NS(=O)(=O)c3cccc(OC)c3)C2)[C@@H](C)C1` [Compound 396], the IC50 was under 100 nM.

Regarding `CCc1cc2c(s1)CCO[C@@]21CCN(C[C@H]2C[C@@H](NS(=O)(=O)c3ccccc3)C2)[C@@H](C)C1` [Compound 397], the IC50 was under 100 nM.

Take `CCc1cc2c(s1)CCO[C@@]21CCN(C[C@H]2C[C@@H](NS(=O)(=O)Cc3ccccc3)C2)[C@@H](C)C1` [Compound 398]: the IC50 is under 100 nM.

For the molecule `CCc1cc2c(s1)CCO[C@@]21CCN(C[C@H]2C[C@@H](NS(=O)(=O)c3ccc(F)cc3)C2)[C@@H](C)C1` [Compound 399], the IC50 is under 100 nM.

As for `CCc1cc2c(s1)CCO[C@@]21CCN(C[C@H]2C[C@@H](NS(=O)(=O)c3cccc(C#N)c3)C2)[C@@H](C)C1` [Compound 400], the IC50 was under 100 nM.

Turning to `CCc1cc2c(s1)CCO[C@@]21CCN(C[C@H]2C[C@@H](NS(=O)(=O)C3COC3)C2)[C@@H](C)C1` [Compound 401], the IC50 was under 100 nM.

For the molecule `CCc1cc2c(s1)CCO[C@@]21CCN(C[C@H]2C[C@@H](NS(=O)(=O)c3ccc(OC)cc3)C2)[C@@H](C)C1` [Compound 402], the IC50 was under 100 nM.

Regarding `CCc1ccc(S(=O)(=O)N[C@H]2C[C@@H](CN3CC[C@]4(C[C@@H]3C)OCCc3sc(CC)cc34)C2)s1` [Compound 403], the IC50 is under 100 nM.

For `CCc1cc2c(s1)CCO[C@@]21CCN(C[C@H]2C[C@@H](NS(=O)(=O)c3ccccc3OC)C2)[C@@H](C)C1` [Compound 404], the IC50 is under 100 nM.
